Reference: patent US5770591A, “Bis-platinum complexes as chemotherapeutic agents” (The University of Vermont and State Agricultural College, priority 1994, dated 1998)
pIC50: −log10 of the molar value. Where two headings read alike, the source gives them in different places.

Experiments:
[1] = tested on: L-1210/DDP murine leukemia cells; assay: In vitro cytotoxic activity (ID50), L-1210/DDP (resistant to cisplatin); assay type: cell-based; details: Table III; dissolved in 10% DMSO
From the text: (§1) where py=pyridine; quin=quinoline; isoquin=isoquinoline; Meim=methylimidazole. […] Complexes were all dissolved in 10% DMSO.

[2] = tested on: L-1210/0 murine leukemia cells; assay: In vitro cytotoxic activity (ID50, 50% inhibition of cell growth), L-1210/0; assay type: cell-based; details: Table III; dissolved in 10% DMSO; read-out: ID50 L-1210/O
From the text: as §1

[3] = tested on: L-1210/dach murine leukemia cells; assay: In vitro cytotoxic activity (ID50), L-1210/dach; assay type: cell-based; details: Table II; solvent H2O, 10% DMSO or DMF per complex
Method: The tests were carried out in vitro according to the procedures outlined by M. P. Hacker et al in Cancer Research, 1985, 45, 4748.

[4] = tested on: L-1210/0 murine leukemia cells; assay: In vitro cytotoxic activity (ID50, 50% inhibition of cell growth), L-1210/0; assay type: cell-based; details: Table II; solvent H2O, 10% DMSO or DMF per complex
[5] = tested on: L-1210/DDP murine leukemia cells; assay: In vitro cytotoxic activity (ID50), L-1210/DDP (resistant to cisplatin); assay type: cell-based; details: Table II; solvent H2O, 10% DMSO or DMF per complex
[6] = tested on: DNA; details: background, cited from earlier work
[7] = tested on: tumors; details: cited from earlier work
[8] = tested on: L-1210 murine leukemia cell lines
Method: The biological assays were performed as previously described by method of Hacker et al. Cancer Research, 1985, 45, 4748. Complexes were all dissolved in 10% DMSO.

[9] = treatment of patients; cited from earlier work

Molecule | pIC50 [1] | pIC50 [2] | pIC50 [3] | pIC50 [4] | pIC50 [5] | further results
[PtCl2 (quinoline)(DMSO)] [quin DMSO trans] | 5.80 | 6.40 | – | – | – | –
N.N.NCCCCN.[Cl][Pt][Cl].[Cl][Pt][Cl] [BisPt4, [{cis-PtCl2 (NH3)}2 (H2 N(CH2)4 NH2)]] | – | – | 6.47 | 6.55 | 5.66 | –
Cl.Cl.[Pt].c1ccncc1.c1ccncc1 [py py cis] | 4.90 | 5.05 | – | – | – | –
[PtCl2 (iso-quinoline)(DMSO)] [iso-quin DMSO trans] | 5.93 | 5.56 | – | – | – | –
N.N.NCCCCN.O=C1CC(=O)[O][Pt][O]1.O=C1CC(=O)[O][Pt][O]1 [BisPtmal, [{cis-Pt(mal)(NH3)}2 (H2 N(CH2)4 NH2)]] | – | – | 5.59 | 6.03 | 5.30 | –
N.N.[Cl][Pt+2][Cl] [NH3 NH3 trans, trans-[PtCl2 (NH3)2]] | < 4.30 | < 4.70 | – | – | – | Formation of 1,2-intrastrand crosslink [6]: cannot form the 1,2-intrastrand crosslink; DNA binding ([6]; listed as trans-DDP): do bind to DNA; DNA binding ([6]; listed as trans-[Pt(NH3)2 Cl2 ]): bind avidly to the DNA molecule; Antitumor activity / cytotoxic effect ([7]; background, listed as trans-DDP): do not exhibit antitumor activity; Antitumor activity / cytotoxic effect ([7]; background, listed as trans-[Pt(NH3)2 Cl2 ]): no cytotoxic effect
N.N.N.N.NCCCCN.[Cl-].[Cl-].[Cl][Pt+].[Cl][Pt+] [Example 1, [{trans-PtCl(NH3)2}2 H2 N(CH2)4 NH2]Cl2] | – | – | 5.27 | 5.47 | 6.05 | Cytotoxic activity (in words) [8]: highly active cytotoxic agents
[Cl][Pt][Cl].c1ccncc1.c1ccncc1 [py py trans, trans-[PtCl2 (pyridine)2]] | 6.10 | 6.21 | – | – | – | Cytotoxic activity (in words) [8]: as cytotoxic as cisplatin; Cross-resistance with the parent cisplatin ([8]; Table III in vitro data): non-cross-resistant with the parent cisplatin
N.N.[Cl][Pt][Cl] [NH3 NH3 cis, cis-[PtCl2 (NH3)2]] | 5.10 | 6.70 | – | – | – | –
N.N.NCCCCN.[Cl][Pt][Cl].[Cl][Pt][Cl] [Example 3, [{cis-PtCl2 (NH3)}H2 N(CH2)4 NH2 {trans-PtCl2 (NH3)}]] | – | – | 5.59 | 6.12 | 5.47 | –
trans-[PtCl2 (pyridine)(DMSO)] [py DMSO trans] | 5.25 | 5.18 | – | – | – | –
N.N.N.[Cl][Pt+] [[Pt(NH3)3 Cl]^+] | – | – | – | – | – | DNA binding [6]: bind avidly to the DNA molecule; Formation of 1,2-intrastrand crosslink [6]: cannot form the 1,2-intrastrand crosslink; DNA binding ([6]; listed as [(Pt(NH3)3 Cl]^+)): do bind to DNA; Antitumor activity / cytotoxic effect ([7]; background): no cytotoxic effect; Antitumor activity / cytotoxic effect ([7]; background, listed as [(Pt(NH3)3 Cl]^+)): do not exhibit antitumor activity
[Pt(dien)Cl]Cl | – | – | < 4.70 | < 4.70 | < 4.70 | DNA binding [6]: do bind to DNA; Antitumor activity / cytotoxic effect [7]: do not exhibit antitumor activity; Cytotoxic activity (in words) [8]: totally inactive
N.N.O=C([O-])C1(C(=O)[O-])CCC1.[Pt+2] [Carboplatin, [Pt(NH3)2 (CBDCA)]] | – | – | – | – | – | Nephrotoxicity [9]: marked reduction in the nephrotoxic effects; Antitumor activity / cytotoxic effect ([7]; background): effective against the same spectrum of carcinomas as cisplatin
